Results published in the RepoRT retention time repository.

assay: HILIC, Waters ACQUITY UPLC BEH Amide, 100 × 2.1 mm, 1.7 µm; A: water + 0.125% formic acid + 10 mM ammonium formate; B: 5% water + 95% acetonitrile + 0.125% formic acid + 10 mM ammonium formate; gradient (min/%B) 0/100 2/100 7.7/70 9.5/40 10.25/30 12.75/100 17/100; conditions: stereoisomer not certain

Row | Structure (SMILES) | LC retention time [min]
1 | CC1CC2C3CCC4=CC(=O)C=CC4(C)C3(F)C(O)CC2(C)C1C(=O)CO (stereo not given) [Desoximetasone] | 1.13
2 | CS(=O)CCCCC(=NO)SC1OC(CO)C(O)C(O)C1O (stereo not given) [Desulfo Glucoraphanin] | 6.61
3 | COc1ccc2c(c1)C13CCCCC1C(C2)N(C)CC3 (stereo not given) [Dextromethorphan] | 2.64
4 | CN1CCC23CCCCC2C1Cc1ccc(O)cc13 (stereo not given) [Dextrorphan] | 3.87
5 | CN1C(=O)CN=C(c2ccccc2)c2cc(Cl)ccc21 [Diazepam] | 1.1
6 | COc1cc(CNC(=O)CCCCCCC(C)C)ccc1O [Dihydrocapsaicin] | 1.07
7 | CCCCCCCCCCCCCCCC(O)C(N)CO (stereo not given) [Dihydrosphingosine] | 4.47
8 | CC(CO)CCNc1ncnc2nc[nH]c12 (stereo not given) [Dihydrozeatin] | 2.99
9 | COC(=O)c1ccccc1C(=O)OC [Dimethyl phthalate] | 1.04
10 | CCCCCCCCOC(=O)c1ccccc1C(=O)OCCCCCCCC [Dioctyl Phthalate] | 0.96
11 | CCOC(=O)C1(c2ccccc2)CCN(CCC(C#N)(c2ccccc2)c2ccccc2)CC1 [Diphenoxylate] | 1.41
12 | CCN(CC)C(=S)SSC(=S)N(CC)CC [Disulfiram] | 0.93
13 | CC(=O)OC12COC1CC(O)C1(C)C(=O)C(O)C3=C(C)C(OC(=O)C(O)C(NC(=O)OC(C)(C)C)c4ccccc4)CC(O)(C(OC(=O)c4ccccc4)C21)C3(C)C (stereo not given) [Docetaxel] | 1.34
14 | NCCc1ccc(O)c(O)c1 [Dopamine] | 6.4
15 | CC=C1N(C)C(C)CC1(c1ccccc1)c1ccccc1 (stereo not given) [EDDP] | 1.9
16 | COC(=O)C1C(O)CC2CCC1N2C (stereo not given) [Ecgonine methylester] | 4.18
17 | CN1C2CCC1C(C(=O)O)C(O)C2 (stereo not given) [Ecgonine] | 7.61
18 | O=C1Nc2ccc(Cl)cc2C(C#CC2CC2)(C(F)(F)F)O1 (stereo not given) [Efavirenz] | 0.98
19 | Oc1cc(O)c2c(c1)OC(c1cc(O)c(O)c(O)c1)C(O)C2 (stereo not given) [Epigallocatechin] | 10.2

Row | Structure (SMILES) | LC retention time [min]
20 | CC(C)C(C)C=CC(C)C1CCC2C3=CC=C4CC(O)CCC4(C)C3CCC21C (stereo not given) [Ergosterol] | 1.43
21 | C[N+](C)(C)C(Cc1c[nH]c(=S)[nH]1)C(=O)[O-] (stereo not given) [Ergothioneine] | 7.74
22 | CCCCCCCCC=CCCCCCCCCCCCC(N)=O [Erucamide] | 1.06
23 | COC(=O)CCc1ccc(OCC(O)CNC(C)C)cc1 (stereo not given) [Esmolol] | 3.13
24 | NCCO [Ethanolamine] | 7.15
25 | CCCC(=O)OCC [Ethylbutanoate] | 4.88
26 | CCOC(=O)c1cncn1C(C)c1ccccc1 (stereo not given) [Etomidate] | 0.98
27 | COc1cc(C2c3cc4c(cc3C(OC3OC5COC(C)OC5C(O)C3O)C3COC(=O)C23)OCO4)cc(OC)c1O (stereo not given) [Etoposide] | 1.3
28 | C=C1CC2C(CCC3(C)C(=O)CCC23)C2(C)C=CC(=O)C=C12 (stereo not given) [Exemestane] | 0.98
29 | CC(=O)OCC(CCn1cnc2cnc(N)nc21)COC(C)=O [Famciclovir] | 1.38
30 | NC(N)=Nc1nc(CSCCC(N)=NS(N)(=O)=O)cs1 [Famotidine] | 5.59
31 | NC(=O)OCC(COC(N)=O)c1ccccc1 [Felbamate] | 1.2
32 | CCNC(C)Cc1cccc(C(F)(F)F)c1 (stereo not given) [Fenfluramine] | 2.33
33 | COc1cc(/C=C/C(=O)O)ccc1O [Ferulic acid] | 1.36
34 | CC(C)(C)NC(=O)C1CCC2C3CCC4NC(=O)C=CC4(C)C3CCC12C (stereo not given) [Finasteride] | 1.17
35 | CN1C(=O)CN=C(c2ccccc2F)c2cc([N+](=O)[O-])ccc21 [Flunitrazepam] | 1.05
36 | CCN(CC)CCN1C(=O)CN=C(c2ccccc2F)c2cc(Cl)ccc21 [Flurazepam] | 2.41
37 | COCCCCC(=NOCCN)c1ccc(C(F)(F)F)cc1 [Fluvoxamine] | 2.93

Next, values leading:

Row | LC retention time [min] | Structure (SMILES)
38 | 4.9 | Clc1ccc2c(c1)CCc1cccnc1C2=C1CCNCC1 [Desloratadine]
39 | 2.56 | CN(C)CCC(c1ccc(Br)cc1)c1ccccn1 (stereo not given) [Dexbrompheniramine]
40 | 1.09 | CC1=NS(=O)(=O)c2cc(Cl)ccc2N1 [Diazoxide]
41 | 1.08 | O=C(O)Cc1ccccc1Nc1c(Cl)cccc1Cl [Diclofenac]
42 | 2.15 | CN(C)CCOC(c1ccccc1)c1ccccc1 [Diphenhydramine]
43 | 1.01 | O=c1c(-c2ccccc2)c1-c1ccccc1 [Diphenylcyclopropenone]
44 | 3.38 | CN(CCOc1ccc(NS(C)(=O)=O)cc1)CCc1ccc(NS(C)(=O)=O)cc1 [Dofetilide]
45 | 1.9 | O=C(OC1CC2CC3CC(C1)N2CC3=O)c1c[nH]c2ccccc12 (stereo not given) [Dolasetron]
46 | 2.44 | COc1cc2c(cc1OC)C(=O)C(CC1CCN(Cc3ccccc3)CC1)C2 (stereo not given) [Donepezil]
47 | 1.64 | CCN1CC(CCN2CCOCC2)C(c2ccccc2)(c2ccccc2)C1=O (stereo not given) [Doxapram]
48 | 2.26 | CN(C)CCC=C1c2ccccc2COc2ccccc21 [Doxepin]
49 | 2.45 | CN(C)CCOC(C)(c1ccccc1)c1ccccn1 (stereo not given) [Doxylamine]
50 | 3.48 | O=C(CCCN1CC=C(n2c(=O)[nH]c3ccccc32)CC1)c1ccc(F)cc1 [Droperidol]
51 | 2.6 | CNCCC(Oc1cccc2ccccc12)c1cccs1 (stereo not given) [Duloxetine]
52 | 7.07 | CC(NC(CCc1ccccc1)C(=O)O)C(=O)N1CCCC1C(=O)O (stereo not given) [Enalaprilat]
53 | 3.31 | CCN1CCN(c2cc3c(cc2F)c(=O)c(C(=O)O)cn3C2CC2)CC1 [Enrofloxacin]
54 | 1.19 | Oc1ccc(C2COc3cc(O)ccc3C2)cc1 (stereo not given) [Equol]
55 | 0.99 | C#CC1(O)CCC2C3CCc4cc(O)ccc4C3CCC21C (stereo not given) [Ethynylestradiol]
56 | 1.03 | O=C1C(CCC(O)c2ccc(F)cc2)C(c2ccc(O)cc2)N1c1ccc(F)cc1 (stereo not given) [Ezetimibe]
57 | 5.68 | Oc1ccc(C2CNCCc3c2cc(O)c(O)c3Cl)cc1 (stereo not given) [Fenoldopam]
58 | 1.01 | CCOC(=O)C(C)Oc1ccc(Oc2nc3ccc(Cl)cc3o2)cc1 (stereo not given) [Fenoxaprop-P-ethyl]
59 | 1.16 | COC(=O)Nc1nc2ccc(C(=O)c3ccc(F)cc3)cc2[nH]1 [Flubendazole]
60 | 1.08 | CCOC(=O)c1ncn2c1CN(C)C(=O)c1cc(F)ccc1-2 [Flumazenil]
61 | 6.66 | c1ccc2c(c1)Cc1ccccc1-2 [Fluorene]
62 | 2.3 | CN1CCN(C2=Nc3cc(F)ccc3Cc3ccccc32)CC1 [Fluperlapine]
63 | 2.74 | OCCN1CCN(CCCN2c3ccccc3Sc3ccc(C(F)(F)F)cc32)CC1 [Fluphenazine]
64 | 7.92 | Nc1nc2c(c(=O)[nH]1)N(C=O)C(CNc1ccc(C(=O)NC(CCC(=O)O)C(=O)O)cc1)CN2 (stereo not given) [Folinic acid]
65 | 1.18 | COc1ccc(-c2coc3cc(O)ccc3c2=O)cc1 [Formononetine]
